Columns and labels:
Format in all cases: cell-based
LDLR = LDLR expression of primary γδ T cells pre-treated with statin; details: different concentrations, compared to lentiviral vector only-transduced cells, FIGS. 10A-10B
Protocol: (§1) Next, the effect of pre-treatment with statin in lentiviral transduction of primary γδ T cells on LDLR expression was evaluated. Three primary γδ T cells samples from healthy donors were expanded with Zol for five days, pre-treated in the presence or absence of Rosuvastatin and Atorvastatin at different concentrations, as described above, and evaluated for LDLR expression.

primary γδ T cells = test: Frequency of Vγ9Vδ2 subset of primary γδ T cells pre-treated with statin (flow cytometry); details: different concentrations, compared to lentiviral vector only at 0 statin concentration, FIGS. 11A-11B
Protocol: as §1, with “on the frequency of Vγ9Vδ2 T cell subset within the γδ T cells” for “on LDLR expression”, “Rosuvastatin or” for “Rosuvastatin and”, “for Vγ9Vδ2 expression, using flow cytometry.” for “for LDLR expression.”

primary NK cells [1] = test: Surface CAR expression of primary NK cells transduced with Antigen-1 CAR lentivirus with or without PDK1 inhibitor (flow cytometry); details: BX795 0.5 to 7.5 μM, compared to cells transduced without BX795, n=2, FIGS. 2B-2C
Protocol: NK cells were first activated in preparation of the transduction. One day 0, 0.5-1×10^6 NK cells per well were distributed in a 24-well plate.
Loaded Anti-Biotin MACSiBead particles (Miltenyi Biotech, Cat #130-094-483) for NK cell activation were resuspended thoroughly and were transferred to a suitable tube at the amount of 5 μL (5×10^5 loaded Anti-Biotin MACSiBead particles) per 1×10^6 NK cells. 100 μL culture medium was added to the loaded Anti-Biotin MACSiBead particles. The mixture was centrifuged at 300×g for 5 minutes so that the beads were washed prior to being added to the plated NK cells. […]
Lentiviral transduction was performed on day 5 or 6. […] The amount of virus needed for transducing cells was determined based on desired multiplicity of infection (MOI). […]
Cells were monitored as early as day 3-4 post transduction for surface CAR expression. The cell number of NK cells was determined. […] The CAR expression on NK cells was then measured using flow cytometry analysis.
To test whether PDK1 inhibitors can improve CAR transduction efficiency or surface CAR stability, primary NK cells were activated and transduced with a Antigen-1 CAR in the presence or absence of an PDK1 inhibitor, BX795 (InvivoGen, cat #tlrl-bx7), at concentrations varying from 0.5 to 7.5 μM. […] Surface CAR expression was monitored at regular intervals using an anti-myc tag AF647 antibody (Cell Signaling, Cat #2233, 1:200).

[2] = tested on: low-density lipoprotein receptor (LDLR); test: LDLR expression on primary NK cells after statin pre-treatment during activation; details: 5 μM during activation, DMSO negative control, n=3, FIG. 3A
Protocol: To test whether statins can improve CAR transduction efficiency or surface CAR stability, cells were pre-treated with 5 μM Rosuvastatin (Cayman Chemical, cat #12029) during the activation prior to the transduction. Then, activated primary NK cells were transduced with a Antigen-2 CAR at MOI of 5. Cells pre-treated with DMSO were included as a negative control.

primary NK cells [3] = test: Antigen-2 CAR expression of primary NK cells transduced after statin pre-treatment; details: primary NK cells pre-treated with 5 μM, MOI of 5, FIG. 3B
Protocol: Lentiviral transduction was performed on day 5 or 6. NK cells were resuspended to determine if cell number had changed from day 0. Lentiviral particles were thawed on ice. Once thawed, lentiviral particles were taken out from ice and equilibrated to room temperature before being added to the activated NK cells. The amount of virus needed for transducing cells was determined based on desired multiplicity of infection (MOI). Once the NK cells were transduced with lentiviral particles, they were returned to the incubator at 37° C. and 5% CO2.
Cells were monitored as early as day 3-4 post transduction for surface CAR expression. The cell number of NK cells was determined. 1×10^5 NK cells were collected from each sample and transferred into wells of a microtiter plate. The cells in each well of the microtiter plate were washed twice with 200 μL FACS Buffer each time. The wells were stained with 100 μL staining buffer containing appropriate CAR detection antibodies. The plate was incubated for at least 30 minutes at 4° C. without light. The cells were then washed twice with 150 μL FACS Buffer each time and were centrifuged at 400×g for 4 minutes at room temperature. The CAR expression on NK cells was then measured using flow cytometry analysis. […]

Row | Compound | LDLR expression (LDLR) | frequency of Vγ9Vδ2 cells (primary γδ T cells) | surface CAR stability (primary NK cells [1]) | LDLR expression on the cells [2] | Antigen-2 CAR expression (primary NK cells [3])
1 | CC(C)c1c(C(=O)Nc2ccccc2)c(-c2ccccc2)c(-c2ccc(F)cc2)n1CC[C@@H](O)C[C@@H](O)CC(=O)O [Atorvastatin] | increased the LDLR expression | did not change the frequency of Vγ9Vδ2 cells |  |  | 
2 | O=C(NCCCNc1nc(Nc2cccc(NC(=O)N3CCCC3)c2)ncc1I)c1cccs1 [BX795] |  |  | improved surface CAR stability in a dose dependent manner |  | 
3 | CC(C)c1nc(N(C)S(C)(=O)=O)nc(-c2ccc(F)cc2)c1/C=C/[C@@H](O)C[C@@H](O)CC(=O)O [Rosuvastatin] | increased the LDLR expression | did not change the frequency of Vγ9Vδ2 cells |  | increased levels of LDLR expression | increased Antigen-2 CAR expression

Reference: US20250188492A1, “Enhanced Transfer of Genetic Instructions to Effector Immune Cells” (Janssen Biotech, Inc., priority 2022, published 2025)
